Legend:
[1] = system: patients having major depressive disorder; conditions: cited from earlier work
[2] = system: subjects with moderate to severe depression; assay: Additional clinical trial with NSI-189 (20 subjects, MADRS); format: in vivo, human; conditions: 80 mg (40 mg BID)
[3] = system: patients having major depressive disorder; assay: First Phase 2 clinical trial of NSI-189 in major depressive disorder (220 patients, SPCD design), original and retrospective analysis; format: in vivo, human
Protocol: A subsequent Phase 2 study was then performed on 220 patients with major depression (11). […] Treatment in either stage was given for six weeks. This design is termed a Sequential Parallel Clinical Design (SPCD) and is analyzed statistically by combining results in a pre-defined manner for outcomes differences between relevant groups (e.g., drug vs. placebo) in each of the stages individually. There are two depression outcome measures accepted by the FDA for the evaluation of adults. See the June 2018 FDA draft guidance entitled “Major Depressive Disorder: Developing Drugs for Treatment.” These are the Montgomery-Asberg Depression Rating Scale (MADRS), which was the primary outcome in this study, as well as the Hamilton Depression Rating Scale (HDRS) which was a key secondary outcome measure.
The remaining patients continued their treatment for stage 2 of the trial. Treatment in either stage was given for six weeks. Patients were eligible for study participation if they were between the ages of 18-60 years, with current major depressive disorder of at least 8 weeks duration according to the DSM-5, as diagnosed by the Structured Clinical Interview for the DSM-5 clinical trial version (SCID-5-CT) during the screen and remote assessment visits, and if they were scored at least 20 at screen, remote assessment, and baseline visits on the Montgomery-Asberg Depression Rating Scale (MADRS). The phase 2 study collected cognitive task performance data prior to treatment, and then again after both stage 1 and stage 2 of the treatment protocol. The purpose of doing so was to determine whether treatment with this compound results in improvement in cognitive functioning, as measured by a variety of behavioral measures.
Prior to the inventor's retrospective analysis, there was no consideration as to using behavioral measures to predict treatment outcome nor was there any analysis conducted to this effect. There was no consideration of using cognitive performance as a predictor but only as an outcome measure. […] The tasks in this battery included a simple reaction time (RT) task, a choice RT task, a one-back working memory task, and a visual learning task. Moreover, given the conversion to z-score, a composite cognitive task performance score could be computed by averaging the z-scores for each of the four tasks in the battery. Analyses focused on the MADRS primary outcome of the study. Statistical analyses focused on the complete trial (incorporating both stage 1 and stage 2 outcomes), using the SPCD analytic approach reported in the original study and thus aligned could be compared with the original statistical analysis plan. Mixed models repeated measures (MMRM) were used to predict change from baseline (at 2, 4, and 6 weeks) in clinical scores and included covariates for group (i.e., poor versus good cognition as defined by a given measure of interest), time, time x group, time x baseline MADRS and baseline MADRS. These covariates likewise were used in the original study, and thus results here can be compared with the all-comer results reported previously. Statistical significance was thus assessed on the primary outcome (MADRS change from baseline at 6 weeks across the SPCD design). The change in MADRS scores in the all corner (i.e. original sample) analysis is shown in FIG. 1(A) for comparison to subgroups as defined by cognitive task performance.
To examine the effect of baseline cognition on clinical outcomes, individuals were split at the mean of the average z-score across all tasks (thus a cognition composite score). This generates two groupings, which were termed poor cognition (below mean, negative z scores) or good cognition (above mean, positive z scores). The poor cognition group can also be termed to be cognitively impaired. […]

[4] = system: patients with PTSD; assay: Open-label Phase 2 clinical trial of NSI-189 in PTSD (CAPS-5); format: in vivo, human; conditions: 40 mg BID, recall index cutoff z<=-0.5, week 4
From the text: These patients underwent the same cognitive battery as patients with depression. As above, MMRM analyses were applied on the Clinician Administered PTSD Scale for DSM-5 (CAPS-5) change from baseline scores in PTSD patients. This analysis included 84 patients.
The overall sample using MMRMs that included core terms for time, baseline, group (i.e., poor versus good cognition as defined by a given measure of interest), time x group and time by baseline. The analyses shown in FIG. 12 used a z≤−0.5 cutoff on recall index scores in order to identify poor cognition patients (with z-scores determined with reference to a separate healthy population identically as for the depressed patients above). This cutoff ensured that poor cognition patients are impaired in this task.

[5] = system: patients with MDD; assay: Open-label Phase 2 clinical trial of NSI-189 as monotherapy or adjunctive treatment in depression (MADRS); format: in vivo, human
Protocol: These patients also underwent a more comprehensive cognitive battery than in the prior Phase 2 study. As above, MMRM analyses were applied on MADRS change from baseline scores in MDD patients. […] In this study, the current episode was determined by the either the prior two years, or the period within the prior two years since the last time at which two continuous months of euthymia occurred, whichever was shorter. Insufficient response to an antidepressant in the current episode was defined as less than a 50% reduction in symptoms (e.g., based on the total score on the MADRS or HDRS).
All analyses used a z=−0.75 cutoff to identify poor cognition patients (with z-scores determined with reference to a separate healthy population) in order to ensure that poor cognition patients are impaired in those tasks.
An overall cognitive performance variable comprised of measures of executive function (digit-symbol substitution task, Wisconsin card sorting task, trail making task, Corsi blocks, verbal fluency), information processing speed (flanker task, choice RT, simple RT) and verbal learning and/or memory was analyzed.
Learning and/or memory was assessed with a word list task, in which patients are given the word lists on five learning trials, and then memory is assessed through recall of those word lists immediately after learning and again after an approximately 20 minute delay (including after inclusion of a new distractor list of words). This computer-implemented task is named VM-REACT (Verbal memory recall computerized test) and is further described in Naparstek et al., J Psychiatr Res., 2019, 114:170-177 (PMID 31096177).
Another way of analyzing the PSD is through the observation that the background trend in the data can be quantified as a measure of background neural activity and has a 1/f relationship (where f is frequency). One way of quantifying this signal is termed the aperiodic exponent, which is estimated as the negative slope for the line of best fit over the 1-50 Hz range of the power spectral density in the log-log space (T. Donoghue, et al., Nat Neurosci, 23(12): 1655-1665 December 2020). Channel-wise correlation of the aperiodic exponent with treatment outcome (as percentage change in MADRS scores from baseline) was examined.

[6] = system: patients with major depression; conditions: total daily doses of 40 mg, 80 mg or 120 mg; 18 patients on active drug; cited from earlier work
[7] = all patients, 40 mg or 80 mg daily vs placebo, full SPCD analysis or each stage alone
[8] = 80 mg, regardless of how the clinical population was defined

SMILES: CC(C)CCNc1ncccc1C(=O)N1CCN(Cc2ccccc2)CC1 [NSI-189, (4-benzylpiperazin-1-yl)-[2-(3-methylbutylamino)pyridin-3-yl]methanone]
- effects on several secondary measures compared to placebo ([1]; 40 mg dose, not corrected for multiple comparisons): nominally significant effects
- efficacy on any study measure ([1]; 80 mg daily dose, all patients): did not demonstrate efficacy on any study measure
- antidepressant efficacy on the HDRS key secondary measure [1, 7]: failed to demonstrate any evidence of antidepressant efficacy
- antidepressant efficacy on the MADRS primary outcome measure [1, 7]: failed to demonstrate any evidence of antidepressant efficacy
- all-comer drug placebo difference, Cohen's d ([1]; all-comer population, prior Phase 2 study): ~0.2
- MADRS improvement, poor versus good cognition patients ([2]; poor verbal memory z<-0.5, week 8): trend
- MADRS improvement, poor versus good cognition patients ([2]; poor verbal memory z<-0.5, weeks 2, 4, and 6): large and statistically significantly greater improvement
- drug-placebo effect size Cohen's d, change in MADRS scores ([3]; 80 mg arm vs placebo, poor cognition group (cognitive composite score), SPCD analysis Stage 1 and Stage 2, p=0.014): 0.58
- change in MADRS scores, either drug arm versus placebo ([3]; good cognition group, 40 mg or 80 mg, p=0.25): no significant differences
- change in MADRS scores, 40 mg group versus placebo ([3]; poor cognition group, p=0.39): not significant
- Cohen's d, change in MADRS, 80 mg arm versus placebo ([3]; poor cognition group, stage 1, week 2, p=0.045): 0.55
- Cohen's d, change in MADRS, 80 mg arm versus placebo ([3]; poor cognition group, stage 1, week 4, p=0.01): 0.7
- Cohen's d, change in MADRS, 80 mg arm versus placebo ([3]; poor cognition group, stage 1, week 6, p=0.03): 0.59
- change in MADRS scores, 80 mg versus placebo ([3]; poor self-reported cognition, CPFQ score >25): no difference is seen between treatment arms
- CAPS-5 change from baseline, poor versus good cognition [4]: significantly greater reduction in PTSD symptoms
- MADRS outcome, self-reported poor versus good cognition ([5]; 80 mg (40 mg BID), CPFQ>25 vs <=25): no significant differences
- MADRS outcome, subjective diminishment of memory recall (CPFQ item) ([5]; 80 mg (40 mg BID), moderate or greater vs minimal or less diminishment): not predictive of outcome
- reduction in the MADRS score, poor versus good cognition patients ([5]; 80 mg (40 mg BID), overall cognitive composite cutoff z=-0.75): significantly better improvement in depressive symptoms
- Cohen's d, MADRS outcome, poor delayed recall versus good ([5]; 80 mg (40 mg BID), week eight, p=0.004): 0.61
- Cohen's d, MADRS outcome, poor immediate recall versus good ([5]; 80 mg (40 mg BID), week eight, p=0.010): 0.56
- Cohen's d, MADRS outcome, poor delayed recall versus good ([5]; 80 mg (40 mg BID), week four, p=0.045): 0.40
- Cohen's d, MADRS outcome, poor delayed recall versus good ([5]; 80 mg (40 mg BID), week six, p=0.001): 0.67
- Cohen's d, MADRS outcome, poor immediate recall versus good ([5]; 80 mg (40 mg BID), week six, p=0.022): 0.48
- Cohen's d, MADRS outcome, poor delayed recall versus good ([5]; 80 mg (40 mg BID), week two, p=0.028): 0.43
- change in MADRS from baseline, low versus high aperiodic exponent patients ([5]; 80 mg, EEG resting eyes closed, split at the median): significantly better depression outcome
- remission rates, poor versus good learning and/or memory patients [5, 8]: approximately double
- response rates, poor versus good learning and/or memory patients [5, 8]: approximately double
- response rates on the MADRS (50% or greater reduction) ([5]; poor learning and/or memory patients, 80 mg open label, across definitions of the clinical population): 60-82%
- antidepressant efficacy [6]: promising evidence for potential antidepressant efficacy

Reference: patent US12208096B2, “Effective treatment of depression in patients having impaired learning and/or memory or certain EEG characteristics with a benzylpiperazine-aminopyridine agent” (Alto Neuroscience, Inc., priority 2022, dated 2025)
